Laboratory results as given in patent EP2802310B1, “NEW USE OF ZERUMBONE AND COMPOSITIONS COMPRISING ZERUMBONE” (Sederma, priority 2012, dated 2013).
Like-named read-outs stand apart in the source and are kept apart here.

Legend:
[1] = system: Murine 3T3-L1 fibroblasts; assay: Anti-differentiating effect on adipocytes, intracellular G3PDH activity, 3T3-L1 line; assay type: cell-based
Experimental: Murine 3T3-L1 fibroblasts were seeded and induced to differentiate into adipocytes for 6 days with specific inducers in the presence of the evaluated products. When mature adipocytes were obtained, layers were crushed and intracellular G3PDH ([…]) activity is measured. A cell quantification test (Hoechst) on the same extracts complements the assay.

Human preadipocytes = assay: Anti-differentiating effect, intracellular G3PDH activity, human preadipocytes; assay type: cell-based
Experimental: Human preadipocytes were plated and induced to differentiate at confluence in the presence of a cocktail of specific inducers and the evaluated products. After 10 days, the layers were crushed and intracellular G3PDH activity was assayed. A cell quantification test (Hoechst) on the same extracts complements the assay.

adiponectin = assay: Adiponectin synthesis by ELISA, 3 days contact; assay type: cell-based, Human
Experimental: Human preadipocytes were plated and induced to differentiate at confluence in the presence of a cocktail of specific inducers. After 10 days of differentiation, the cells are purged from inducers in their basis medium and left in contact with the products for 3 days in this medium. After contact, the supernatants were collected and the adiponectin amount was measured by ELISA.

HO-1 = HO-1 synthesis by ELISA in adipocyte lysates; assay type: cell-based, Human; settings: for activation at 3 ppm / activation at 5 ppm: Homo sapiens, Adipocyte, read-out: [HO-1] % Var / control
Experimental: HO-1 enzymes catalyse the degradation of heme into biliverdin, iron, and carbon monoxide. Its overexpression is associated with a decrease in the size of adipocytes in adipose tissue, an increase of adiponectin secretion and a decrease of IL-6 and TNF secretion and is associated with weight loss.
Human preadipocytes were seeded and induced to differentiate at confluence in the presence of a cocktail of specific inducers and the products to evaluate. After 10 days, the layers were crushed and the HO-1 content was measured in these lysates by ELISA. Furthermore after 10 days of differentiation, matiure adipocytes were placed in contact with the products for 48h and the HO-1 content was also measured in the cellular lysates. In parallel, an estimation of the cell quantification is realized on these two assays (Hoechst test).

IL6 = IL6 synthesis by ELISA in adipocyte supernatants; assay type: cell-based; settings: Homo sapiens
Experimental: Human preadipocytes were seeded and induced to differentiate in the presence of a cocktail of specific inducers and the evaluated products. At the end of differentiation (at 7 and 10 days), the IL6 content synthetized by the adipocytes is measured in the culture supernatants by ELISA method. Furthermore, after 10 days of differentiation, mature adipocytes are placed in contact of the products during 72h and the IL6 content is also measured in the cellular supernatants. In parallel, survival estimation was realized on these two assays (Hoechst tests).

elastin [2] = assay: Elastin fibres in skin explants under NO stress (Verhoeff stain); settings: 18 ppm
Experimental: Principle: Explants (person, abdominal skin) received a topical cream containing the product of the invention (cream according to above example 1 at 18ppm of zerumbone) or a placebo cream (same cream without zerumbone) for two days. At the same time, the culture medium received 18ppm of zerumbone in a liquid form (or its excipient) to potentiate the effects. A NO stress was later applied for 24 hours using an NO donor (NOC-5) integrated in the culture medium. Finally, the product was again applied on the explants and in the culture medium for two days.
Counting was done using photos (50 photos/case) by filtering the colours.

elastin [3] = assay: Elastin synthesis in fibroblasts under NO stress, ELISA; assay type: cell-based; settings: Homo sapiens, Fibroblast, NHF, compared to the control case following the same NO, read-out: protection of elastin synthesis
Fibromodulin = Fibromodulin synthesis in NHF, ELISA; assay type: cell-based, human; settings: two days
Experimental: (§1) Principle: NHFs were put into contact with the product of the invention for two days (fibromodulin) or three days (dermatopontin). The supernatants were then assayed using ELISA tests. At the same time, the number of cells was quantified using the Hoechst method.

Dermatopontin = Dermatopontin synthesis in NHF, ELISA; assay type: cell-based, human; settings: three days
Experimental: as §1

MMP1 = MMP1 synthesis in NHF after UVA, ELISA; assay type: cell-based, human; settings: 24h before and 24h after UVA
Experimental: Principle: NHFs were put into contact with the product of the invention for 24h, and then were radiated with UVA rays to trigger an experimental increase in MMP1 synthesis. The cells once again received the product for 24h and the supernatants were assayed using ELISA tests. At the same time, the number of cells was quantified using the Hoechst method.

Cathepsin-S = Cathepsin-S in NHF under NO stress, ELISA; assay type: cell-based, human; settings: NO stress (NOC-5)
Experimental: Principle: NHFs were put into contact with the invention product for 24h then were subjected to NO stress. NO donor, NOC-5, was introduced in the culture medium. At the end of a second 24h contact with the zerumbone extract, a cathepsin-S assay was performed using ELISA. At the same time, the number of cells was quantified using the Hoechst method.

elastase = assay: Dermal destruction by proteases in skin explants, elastase; settings: 18ppm of zerumbone co-injected with the protease; five days at 37°C; confocal microscope
Experimental: Principle: Once prepared, skin explants (person, abdominal skin) received an injection of elastase or collagenase that could proteolyse 30 µmol/min of elastin or collagen. In another case, the invention product (titrated at 18ppm of zerumbone) was co-injected with the protease to assess its ability to inhibit the proteolysis of constituents of the dermis, and thus of protection of the dermis. After five days of incubation at 37°C, the result was observed through a confocal microscope and compared to what was obtained in the case without protease at the same depth (60 µm).

[4] = 72 h, adipocytes after differenciation (3days), read-out: IL6 % Var / control

## C/C1=C\CC(C)(C)/C=C/C(=O)/C(C)=C/CC1 [Zerumbone, 2E, 6E, 9E-Humulatrien-8-one]
[1]; 1ppm, differentiation for 6 days
  [G3PDH]: 304.2 +/- 9.9 mU/ 10^6 cell
[1]; 3T3-L1, tested doses
  cytotoxicity: without apparent cytotoxicity
[1]; 3ppm, differentiation for 6 days
  [G3PDH]: 79.3 +/- 43.6 mU/ 10^6 cell
[1]; 5ppm
  differentiation of 3T3-L1: total inhibition
[1]; 5ppm, differentiation for 6 days
  [G3PDH]: 3.4+/-10.3 mU/ 10^6 cell
[1]; Mus musculus, 3T3-L1, 144 h, 1ppm, differentiation for 6 days, read-out: [G3PDH] % Var / control
  inhibition at 1 ppm: 53%
[1]; Mus musculus, 3T3-L1, 144 h, 3ppm, differentiation for 6 days, read-out: [G3PDH] % Var / control
  inhibition at 3 ppm: 88%
[1]; Mus musculus, 3T3-L1, 144 h, 5ppm, differentiation for 6 days, read-out: [G3PDH] % Var / control
  inhibition at 5 ppm: 99%
Human preadipocytes; 0.5ppm, 10 days
  [G3PDH]: 144 +/- 15 mU/ 10^6 cell
Human preadipocytes; 1ppm, 10 days
  [G3PDH]: 106 +/- 14 mU/ 10^6 cell
Human preadipocytes; 3ppm, 10 days
  [G3PDH]: 30 +/- 2 mU/ 10^6 cell
Human preadipocytes; 5 ppm of extract
  G3PDH activity and human preadipocytes differentiation: complete inhibition
Human preadipocytes; 5ppm, 10 days
  [G3PDH]: 15 +/- 3 mU/ 10^6 cell
Human preadipocytes; Homo sapiens, 240 h, 0.5ppm, 10 days, read-out: [G3PDH] % Var / control
  inhibition at 0.5 ppm: 18%
Human preadipocytes; Homo sapiens, 240 h, 1ppm, 10 days, read-out: [G3PDH] % Var / control
  inhibition at 1 ppm: 39%
Human preadipocytes; Homo sapiens, 240 h, 3ppm, 10 days, read-out: [G3PDH] % Var / control
  inhibition at 3 ppm: 83%
Human preadipocytes; Homo sapiens, 240 h, 5ppm, 10 days, read-out: [G3PDH] % Var / control
  inhibition at 5 ppm: 91%
adiponectin; 2ppm
  [Adiponectin]: 221.4 +/- 24.5 ng/10^E6 cell
adiponectin; 6ppm
  [Adiponectin]: 19.0 +/- 0.6 ng/10^E6 cell
adiponectin; Homo sapiens, 72 h, 2ppm, read-out: [Adiponectin] % Var / control
  activation at 2 ppm: 45%
adiponectin; Homo sapiens, 72 h, 6ppm, read-out: [Adiponectin] % Var / control
  activation at 6 ppm: 95%
HO-1; 3ppm, adipocytes in the course of differenciation (10days)
  [HO-1]: 51658 +/- 7985 ng/ 10^6 cell
HO-1; 3ppm, mature adipocytes (48h)
  [HO-1]: 70229 +/- 10638 ng/ 10^6 cell
  activation at 3 ppm: 142%
HO-1; 5ppm, adipocytes in the course of differenciation (10days)
  [HO-1]: 67243 +/- 11428 ng/ 10^6 cell
HO-1; 5ppm, mature adipocytes (48h)
  [HO-1]: 96700 +/- 4548 ng/ 10^6 cell
  activation at 5 ppm: 233%
HO-1; 240 h, 3ppm, adipocytes in the course of differenciation (10days)
  activation at 3 ppm: 29%
HO-1; 240 h, 5ppm, adipocytes in the course of differenciation (10days)
  activation at 5 ppm: 68%
IL6; [4]
  inhibition at 3 ppm: 33%
  inhibition at 5 ppm: 31%
IL6; 240 h, adipocytes in the course of differenciation (10days), read-out: IL6 % Var / control
  inhibition at 3 ppm: 49%
IL6; 240 h, adipocytes in the course of differenciation (10days), p=0.09, read-out: IL6 % Var / control
  inhibition at 5 ppm: 50%
Elastin [2]; cream and culture medium, NO stress (NOC-5) 24 hours
  Elastin: 2.41 ± 1.40 UCA
Elastin [2]; versus Control NO (Reference 2)
  Elastin % Variation: +104%; p<0.01
Elastin [3]
  activation at 5 ppm: 179%
Fibromodulin; 5 ppm
  Fibromodulin: 51.4 ± 13.4 ng/106cell.
Fibromodulin; Homo sapiens, 48 h, read-out: Fibromodulin % Variation
  activation at 5 ppm: 268%
Dermatopontin; 5 ppm
  Dermatopontin: 2540 ± 361 ng/106cell.
Dermatopontin; Homo sapiens, 72 h, read-out: Dermatopontin % Variation
  activation at 5 ppm: 137%
MMP1; 5 ppm
  MMP1: 691 ± 225 ng/106cell.
MMP1; Homo sapiens, Fibroblast, light or radiation study, read-out: MMP1 % Variation
  inhibition at 5 ppm: 51%
Cathepsin-S; 5 ppm
  Cathepsin-S: 290 ± 40 pg/106cell.
Cathepsin-S; Homo sapiens, Fibroblast, read-out: Cathepsin-S % Variation
  inhibition at 5 ppm: 34%
elastase
  integrity of the dermis under elastase stress: retains its integrity
